Measurements as given in patent US20260069584A1, “METHODS OF TREATING CHRONIC MYELOID LEUKEMIA USING THE TYROSINE KINASE INHIBITOR VODOBATINIB” (Sun Pharma Advanced Research Company Ltd., priority 2022, published 2026).

System: AP CML, BP CML and Ph+ ALL
Experiment: Part B: disease response in AP CML, BP CML and Ph+ ALL subjects
Format: in vivo, human
Excerpt: This was a Phase I/2, open-label, single-agent, multicenter, multi-dose, dose-escalation study in subjects with Philadelphia chromosome-positive Ph+ CML (CP CML, AP CML and BP CML) and Ph+ ALL. The primary objectives of this study were to determine the maximum tolerated dose (MTD; or recommended Phase 2 dose [RP2D]) of the compound of Formula I when administered orally and to evaluate its safety.
In this study, the dose-escalation cohort started with an accelerated titration study design (ATD) and shifted to a 3±3 design when subjects in the preceding ATD cohort experienced either grade 2 or higher adverse events (AEs) or dose-limiting toxicity (DLT) during Cycle 1 that was not clearly and incontrovertibly related to the underlying disease or concomitant medications. The DLT period consisted of 28 days (Cycle 1). Subjects experiencing DLTs were managed with dose delays and/or discontinuation and continued in the study until disease progression. Decisions to advance to a succeeding dose level occurred after the evaluation of safety and tolerability data for a given dose level.
Accordingly, the eligible subjects were treated in 4-week cycles of once daily self-administration of the compound of Formula I. The administration was after an overnight fast, or after maintaining approximately 2 hours of fasting before and after the dosing in all cycles.
For the cohorts, where the 3±3 design applies, 3 subjects were enrolled initially. If 2 of these subjects experienced a Grade 2 or more toxicity (that was not clearly and incontrovertibly related to the underlying disease or concomitant medications), subsequent cohorts were escalated according to smaller increments. Further, if there were no DLTs in the first 3 subjects, dose escalation to the next higher dose level was allowed to proceed. If 1 of the 3 subjects experienced a DLT, that dose level was expanded to 6 subjects (3 additional subjects were enrolled). If 2 subjects at a given dose level experienced a DLT, the MTD was considered to have been exceeded. The next lower dose level was expanded to 6 subjects, or if 6 subjects had already been enrolled and no more than 1 of the 6 subjects experienced a DLT, then this lower dose level was considered the MTD. Additional subjects were enrolled in dose escalation cohorts for further assessment of safety and efficacy of the compound of Formula 1 at doses that were tolerated (i.e., doses that have <2 DLTs in 6 enrolled subjects or <1 DLT in 3 enrolled subjects). Thus 204 mg was arrived at as MTD. A subject experiencing a DLT was allowed to continue therapy with a reduced dose. Subjects who experienced a DLT and recovered were treated at the next lower dose level until disease progression or other events requiring further dose reduction existed. For cohorts at Dose Level 2 or higher, a further dose reduction (i.e., up to 2 levels lower than their originally assigned dose) was implemented in the case of a further DLT or other non-DLT events requiring a dose reduction, if and when the event leading to dose reduction returned to Grade 1 or lower in severity. The reduced dose was re-escalated to the original or higher dose (i.e., the dose for which safety had been established in the dose escalation cohort) considering subject safety and response to the compound of Formula I. The subject was discontinued from treatment using the compound of Formula I, if dose reduction below 48 mg was required.
The study was conducted over a period of 60 months (5 years) which was divided in 28-days cycle. In the first two cycles, the dose administration was started on day 1 and the subject's assessments were performed on day 1, day 2, day 3, day 8, day 15 and day 22. From Cycle 3 onwards, the assessments were performed every 3 months (i.e., on day 28 of Cycle 3, followed by day 28 of Cycle 6 which was further followed by day 28 of Cycle 9). […]

## Cc1ccc(C(=O)NNC(=O)c2c(C)cccc2Cl)cc1C#Cc1cnc2ccccc2c1 [compound of Formula I, N′-(2-chloro-6-methylbenzoyl)-4-methyl-3-[2-(3-quinolyl)ethynyl]-benzohydrazide]
24 mg (N = 1) ESC
  Best Cytogenetic Response: Complete Response: 1(100)
  Best Cytogenetic Response: Major Cytogenetic Response: 1(100)
  Best Cytogenetic Response: Minimal Response: 0
  Best Cytogenetic Response: Minor Response: 0
  Best Cytogenetic Response: No Response: 0
  Best Cytogenetic Response: Partial Response: 0
  Best Hematologic Response: Complete Response: 1(100)
  Best Hematologic Response: Major Hematologic Response: 1(100)
  Best Hematologic Response: No Evidence of Leukemia: 0
  Best Hematologic Response: No Response: 0
  Best Molecular Response: Complete Response: 0
  Best Molecular Response: Major Response: 1(100)
  Best Molecular Response: No Response: 0
48 mg (N = 3) ESC
  Best Cytogenetic Response: Complete Response: 2(66.7)
  Best Cytogenetic Response: Major Cytogenetic Response: 2(66.7)
  Best Cytogenetic Response: Minimal Response: 0
  Best Cytogenetic Response: Minor Response: 0
  Best Cytogenetic Response: No Response: 1(33.3)
  Best Cytogenetic Response: Partial Response: 0
  Best Hematologic Response: Complete Response: 3(100)
  Best Hematologic Response: Major Hematologic Response: 3(100)
  Best Hematologic Response: No Evidence of Leukemia: 0
  Best Hematologic Response: No Response: 0
  Best Molecular Response: Complete Response: 1(33.3)
  Best Molecular Response: Major Response: 1(33.3)
  Best Molecular Response: No Response: 2(66.7)
90 mg (N = 1) ESC
  Best Cytogenetic Response: Complete Response: 1(100)
  Best Cytogenetic Response: Major Cytogenetic Response: 1(100)
  Best Cytogenetic Response: Minimal Response: 0
  Best Cytogenetic Response: Minor Response: 0
  Best Cytogenetic Response: No Response: 0
  Best Cytogenetic Response: Partial Response: 0
  Best Hematologic Response: Complete Response: 1(100)
  Best Hematologic Response: Major Hematologic Response: 1(100)
  Best Hematologic Response: No Evidence of Leukemia: 0
  Best Hematologic Response: No Response: 0
  Best Molecular Response: Complete Response: 1(100)
  Best Molecular Response: Major Response: 1(100)
  Best Molecular Response: No Response: 0
126 mg (N = 3) ESC
  Best Cytogenetic Response: Complete Response: 0
  Best Cytogenetic Response: Major Cytogenetic Response: 0
  Best Cytogenetic Response: Minimal Response: 0
  Best Cytogenetic Response: Minor Response: 1(33.3)
  Best Cytogenetic Response: No Response: 1(33.3)
  Best Cytogenetic Response: Partial Response: 0
  Best Hematologic Response: Complete Response: 0
  Best Hematologic Response: Major Hematologic Response: 0
  Best Hematologic Response: No Evidence of Leukemia: 0
  Best Hematologic Response: No Response: 1(33.3)
  Best Molecular Response: Complete Response: 0
  Best Molecular Response: Major Response: 0
  Best Molecular Response: No Response: 2(66.7)
2 Ph+ ALL pts
  maintained CCyR and MMR: 1 pt
3 AP CML patients
  CCyR with MMR: 1 patient
  PCyR: 2 patients
4 BP CML patients
  complete hematological response (CHR): 2 patients
  disease progression as best response: 2 patients
66 ang (N = 3) ESC
  Best Cytogenetic Response: Complete Response: 2(66.7)
  Best Cytogenetic Response: Minor Response: 0
  Best Cytogenetic Response: No Response: 0
  Best Hematologic Response: Complete Response: 0
  Best Hematologic Response: Major Hematologic Response: 2(66.7)
  Best Hematologic Response: No Response: 1(33.3)
  Best Molecular Response: Major Response: 1(33.3)
  Best Molecular Response: No Response: 2(66.7)
(N = 3) ESC
  Best Cytogenetic Response: Major Cytogenetic Response: 3(100)
  Best Cytogenetic Response: Minimal Response: 0
  Best Cytogenetic Response: Partial Response: 1(33.3)
  Best Hematologic Response: No Evidence of Leukemia: 2(66.7)
  Best Molecular Response: Complete Response: 1(33.3)
Total ESC
  Best Cytogenetic Response: Complete Response: 6(54.5)
  Best Cytogenetic Response: Major Cytogenetic Response: 7(63.6)
  Best Cytogenetic Response: Minimal Response: 0
  Best Cytogenetic Response: Minor Response: 1(9.1)
  Best Cytogenetic Response: No Response: 2(18.2)
  Best Cytogenetic Response: Partial Response: 1(9.1)
  Best Hematologic Response: Complete Response: 5(45.5)
  Best Hematologic Response: Major Hematologic Response: 7(63.6)
  Best Hematologic Response: No Evidence of Leukemia: 2(18.2)
  Best Hematologic Response: No Response: 2(18.2)
  Best Molecular Response: Complete Response: 3(27.3)
  Best Molecular Response: Major Response: 4(36.4)
  Best Molecular Response: No Response: 6(54.5)
